{
  "source": "paper PMC13327620",
  "about": "“A Deep‐Red‐Absorbing Osmium(II) Complex as a Photosensitizer for Photodynamic Therapy Inducing Immunogenic Cell Death” (Angewandte Chemie (International Ed. in English), 2026)",
  "key": {"[1]": {"tested_on": "mouse colon adenocarcinoma (CT26) cells", "assay": "Resazurin cell viability assay, (photo)cytotoxicity, normoxia", "format": "cell-based", "experimental": "Given that most ICD studies focus on breast, non‐small cell lung carcinoma, and colon cancer, and since ICD was first discovered in mouse colon cancer cells (CT26), we initially tested our compounds on CT26 cells. Cells were incubated with nine different concentrations (mainly from 0.01 to 100 µM) of the compounds for 4 h in the dark. Then, the diluted solutions containing the compounds were replaced by fresh medium, and the cells were either illuminated or kept in the dark for 1 h more. After 2 days, IC50 values (concentration of the agent inhibiting cell growth by 50%) were determined with the resazurin assay, using chlorin e6 (Ce6) and protoporphyrin IX (PpIX) for comparison (Figure S10). The clinically approved chlorin mixture Radachlorin contains ∼80% Ce6, while 5‐aminolevulinic acid (Ameluz and Levulan) and methyl 5‐aminolevulinate (Metvix and Metvixia) serve as precursors of PpIX. Therefore, Ce6 and PpIX were used for comparison purposes.\n(100 U ml−1), streptomycin (100 U ml−1), and 1% L-glutamine. […]\nAll cells were incubated at 37 °C in a humidified atmosphere with 5 % CO2.\nNormoxia. The in vitro viability of cells exposed to the complexes was determined using a resazurin assay. C ells were seeded in 96-well plates at densities of 4,000 cells/well for CT26, MC A205 and U-87 MG cells, and 8,000 cells/well for MRC-5 and NIH/3T3 cells. A fter 24 h of growth at 37 °C wit h 5% CO2, the medium was replaced with fresh medium containing various concentrations of the compounds . Following a 4- h incubation in the dark, the medium was refres hed , and the plates were exposed to irradiation usinga LUM OS -BIO photoreactor (At las Photonics).N on- ir rad iated plates were similarly refr eshed with medium and kept in the dark for the same duration. After a 40- h r ecov ery period, a f reshly pr epar ed resazurin solution (0.2 mg/mL) was added to each well, and the plates were left in the dark for 4 h before analysis on a B i o Te k Cytation 5 Cell Imaging Multimode Reader (Agil ent Technologies). […]"}, "[2]": {"assay": "Photophysical properties (fluorescence and singlet oxygen quantum yield, lifetime)", "format": "physicochemical", "settings": "in ethanol", "experimental": "System Inc, Phoenixville, PA, USA). The excitation beam is separated by a SPEX dual […]\nnetwork monochromator (1200 lines / mm blazed at 330 nm). The fluorescence was […]\nmeasured by the UV-Visible detector via the SPEX dual network emission […]\nmonochromator (1200 lines / mm blazed at 500 nm). Singlet oxygen production was […]\nmeasured with an infrared detector InGaAs (800 - 1550 nm) via the dual network […]\nemission monochromator SPEX (600 lines / mm blazed at 1 µm).\nAll spectra were measured using 4-sided quartz cells. The absorption values of the […]\nreferences and samples at the excitation wavelength were adjusted to 0.2. All emission […]\nspectra were normalized to the same absorbance for the purpose of comparison.\n[Ru(bpy)3]2+ in acetonitrile was chosen as standard for both fluorescence and singlet […]\noxygen quantum yield determination. Fluorescence quantum yield of [ Ru(bpy)3]2+ i n […]\nacetonitrile is evaluated at 0.077.[5] Singlet oxygen quantum yield of [ Ru(bpy)3]2+ i n […]\nacetonitrile is evaluat ed at 0.77.[6]\nTime-resolved experiments were performed using for excitation: a pulsed laser diode […]\nemitting at 407 nm (LDH-P-C-400M, FWHM < 70 ps, 1 MHz) coupled with a driver […]\nPDL 800- D (both PicoQuant GmbH, BERLIN, Germany) and for detection: an […]\navalanch e photodiode SPCM-AQR-15 (EG & G, VAUDREUIL, Can ada) coupled with […]\na 650 nm long- wav e p ass filter as det ection system. The acquisition was p erformed by […]\na PicoHarp 300 module with a 4 channels router PHR-800 (both PicoQuant GmbH, […]\nBERLIN, Germany ). Th e fluores cence decays were recorded using the single photon […]\ncounting method. Data were collected up to 1000 counts accumulated in the maximum […]\nchannel and analyzed using Time Correlated Single Photon Counting (TCSPC) […]\nsoftware Fluofit (PicoQuant GmbH, BERLIN, Germany) based on iterative reconvolution using a Levensberg- M arquandt alg oritm, enabling the obtention of multi-exponential profiles (m ainly one or two exponenti als in our cases ). […]"}},
  "note": "Where two headings read alike, the source gives them in different places.",
  "data": [
    {"smiles": "C=Cc1c(C)c2cc3nc(c(CC(=O)O)c4[nH]c(cc5nc(cc1[nH]2)C(C)=C5CC)c(C)c4C(=O)O)[C@@H](CCC(=O)O)[C@@H]3C", "note": "[Ce6, chlorin e6]", "values": [
      {"measurement": "PI", "setting": "[1]; CT26, 480 nm", "result": ">38"},
      {"measurement": "PI", "setting": "[1]; CT26, 510 nm", "result": ">70"},
      {"measurement": "PI", "setting": "[1]; CT26, 540 nm", "result": ">30"},
      {"measurement": "PI", "setting": "[1]; CT26, 595 nm", "result": ">20"},
      {"measurement": "PI (phototoxicity index, IC50 dark/IC50 light)", "setting": "[1]; CT26, 620 nm", "result": ">51"},
      {"measurement": "PI", "setting": "[1]; CT26, 645 nm", "result": ">25"},
      {"measurement": "PI", "setting": "[1]; CT26, 670 nm", "result": ">51"},
      {"measurement": "PI", "setting": "[1]; CT26, 740 nm", "result": ">19"},
      {"measurement": "PI", "setting": "[1]; CT26, 770 nm", "result": ">4"},
      {"measurement": "IC50", "setting": "[1]; CT26, 770 nm, FWHM 12.5 nm, 15.30 J/cm^2", "result": "almost non‐phototoxic"},
      {"measurement": "IC50", "setting": "[1]; Mus musculus, CT26, CT26, dark, normoxia, read-out: IC50 Dark", "result": "> 100", "unit": "µM"},
      {"measurement": "IC50", "setting": "[1]; Mus musculus, CT26, light or radiation study, 1 h, CT26, 620 nm, 1.88 mW/cm^2, 60 min, normoxia, read-out: IC50 620 nm (1 h, 6.75 J/cm^2)", "result": "1.98 ± 0.11", "unit": "µM"},
      {"measurement": "IC50", "setting": "[1]; Mus musculus, CT26, light or radiation study, CT26, 480 nm, FWHM 10 nm, 3.38 J/cm^2, read-out: IC50", "result": "2.64 ± 0.42", "unit": "µM"},
      {"measurement": "IC50", "setting": "[1]; Mus musculus, CT26, light or radiation study, CT26, 510 nm, FWHM 15 nm, 2.44 J/cm^2, read-out: IC50", "result": "1.43 ± 0.1", "unit": "µM"},
      {"measurement": "IC50", "setting": "[1]; Mus musculus, CT26, light or radiation study, CT26, 540 nm, FWHM 15 nm, 9.00 J/cm^2, read-out: IC50", "result": "3.33 ± 0.44", "unit": "µM"},
      {"measurement": "IC50", "setting": "[1]; Mus musculus, CT26, light or radiation study, CT26, 595 nm, FWHM 10 nm, 3.38 J/cm^2, read-out: IC50", "result": "5.1 ± 1.44", "unit": "µM"},
      {"measurement": "IC50", "setting": "[1]; Mus musculus, CT26, light or radiation study, CT26, 645 nm, FWHM 10 nm, 9.00 J/cm^2, read-out: IC50", "result": "3.93 ± 0.67", "unit": "µM"},
      {"measurement": "IC50", "setting": "[1]; Mus musculus, CT26, light or radiation study, CT26, 670 nm, FWHM 10 nm, 13.50 J/cm^2, read-out: IC50", "result": "1.97 ± 0.42", "unit": "µM"},
      {"measurement": "IC50", "setting": "[1]; Mus musculus, CT26, light or radiation study, CT26, 740 nm, FWHM 10 nm, 12.60 J/cm^2, read-out: IC50", "result": "5.27 ± 0.46", "unit": "µM"},
      {"measurement": "IC50", "setting": "[1]; Mus musculus, CT26, light or radiation study, CT26, 770 nm, FWHM 12.5 nm, 15.30 J/cm^2, read-out: IC50", "result": "25.4 ± 3.72", "unit": "µM"},
      {"measurement": "Fluorescence lifetime", "setting": "[2]", "result": 4.7, "unit": "ns"},
      {"measurement": "Fluorescence quantum yield", "setting": "[2]", "result": 0.20},
      {"measurement": "Singlet oxygen quantum yield", "setting": "[2]", "result": 0.65}
    ]}
  ]
}
